# In ChEMBL document CHEMBL3885881, “DrugMatrix”:
# Organism: Rattus norvegicus
# Type: toxicity, organism-based, Sprague-Dawley
# Details: in vivo, po, 24 h, route oral GAVAGE, time 1 day, […]; for ABSOLUTE BASOPHIL / ABSOLUTE EOSINOPHIL / ABSOLUTE LYMPHOCYTE / ABSOLUTE MONOCYTE / BASOPHIL / EOSINOPHIL / ERYTHROCYTE COUNT / HEMATOCRIT / HEMOGLOBIN / LEUKOCYTE COUNT / LYMPHOCYTE / MEAN CORPUSCULAR HEMOGLOBIN / MEAN CORPUSCULAR HEMOGLOBIN CONCENTRATION / MEAN CORPUSCULAR VOLUME / MONOCYTE / NEUTROPHIL / PLATELET COUNT: tissue Blood; for ALANINE AMINOTRANSFERASE / ALBUMIN / ALKALINE PHOSPHATASE / ASPARTATE AMINOTRANSFERASE / BLOOD UREA NITROGEN / CARBON DIOXIDE / CHLORIDE / CHOLESTEROL / CREATINE PHOSPHOKINASE / CREATININE / GLUCOSE / LACTATE DEHYDROGENASE / LIPASE / PHOSPHORUS / POTASSIUM / SODIUM / TOTAL BILIRUBIN / TOTAL PROTEIN / URIC ACID: tissue Plasma
# [1] = 0 mg/kg, vehicle control, dose level Control
# Description: DrugMatrix - Regimen: Single
smiles,measurement,setting,value
CC(CCc1ccc(O)cc1)NCCc1ccc(O)c(O)c1 (configuration not stated) [DOBUTAMINE],ABSOLUTE BASOPHIL,[1],46.7 cells/µL
same,ABSOLUTE EOSINOPHIL,[1],130 cells/µL
same,ABSOLUTE LYMPHOCYTE,[1],8720 cells/µL
same,ABSOLUTE MONOCYTE,[1],140 cells/µL
same,BASOPHIL,[1],0.43%
same,EOSINOPHIL,[1],1.33%
same,ERYTHROCYTE COUNT,[1],6.45 x10E6/uL
same,HEMATOCRIT,[1],42.2%
same,HEMOGLOBIN,[1],13.33 G/DL
same,LEUKOCYTE COUNT,[1],10.59 x10E3/uL
same,LYMPHOCYTE,[1],82.13%
same,MEAN CORPUSCULAR HEMOGLOBIN,[1],20.67 pg
same,MEAN CORPUSCULAR HEMOGLOBIN CONCENTRATION,[1],31.6 G/DL
same,MEAN CORPUSCULAR VOLUME,[1],65.4 fL
same,MONOCYTE,[1],1.37%
same,NEUTROPHIL,[1],14.3%
same,PLATELET COUNT,[1],1048.67 x10E3/uL
same,ALANINE AMINOTRANSFERASE,[1],44 u/L
same,ALBUMIN,[1],3.93 G/DL
same,ALKALINE PHOSPHATASE,[1],551.33 u/L
same,ASPARTATE AMINOTRANSFERASE,[1],97 u/L
same,BLOOD UREA NITROGEN,[1],13.5 mg/dL
same,CARBON DIOXIDE,[1],37.33 mmol/L
same,CHLORIDE,[1],102.33 MEQ/L
same,CHOLESTEROL,[1],83 mg/dL
same,CREATINE PHOSPHOKINASE,[1],365.33 u/L
same,CREATININE,[1],0.4 mg/dL
same,GLUCOSE,[1],189 mg/dL
same,LACTATE DEHYDROGENASE,[1],170.33 u/L
same,LIPASE,[1],10.67 u/L
same,PHOSPHORUS,[1],11.53 mg/dL
same,POTASSIUM,[1],5.63 MEQ/L
same,SODIUM,[1],144.33 MEQ/L
same,TOTAL BILIRUBIN,[1],0.4 mg/dL
same,TOTAL PROTEIN,[1],6.27 G/DL
same,URIC ACID,[1],0.87 mg/dL
same,ABSOLUTE BASOPHIL,"15 mg/kg, dose level High",16.7 cells/µL
same,ABSOLUTE EOSINOPHIL,"15 mg/kg, dose level High",56.7 cells/µL
same,ABSOLUTE LYMPHOCYTE,"15 mg/kg, dose level High",5150 cells/µL
same,ABSOLUTE MONOCYTE,"15 mg/kg, dose level High",130 cells/µL
same,BASOPHIL,"15 mg/kg, dose level High",0.23%
same,EOSINOPHIL,"15 mg/kg, dose level High",1%
same,ERYTHROCYTE COUNT,"15 mg/kg, dose level High",6.18 x10E6/uL
same,HEMATOCRIT,"15 mg/kg, dose level High",41.87%
same,HEMOGLOBIN,"15 mg/kg, dose level High",13.57 G/DL
same,LEUKOCYTE COUNT,"15 mg/kg, dose level High",6.42 x10E3/uL
same,LYMPHOCYTE,"15 mg/kg, dose level High",79.73%
same,MEAN CORPUSCULAR HEMOGLOBIN,"15 mg/kg, dose level High",21.9 pg
same,MEAN CORPUSCULAR HEMOGLOBIN CONCENTRATION,"15 mg/kg, dose level High",32.3 G/DL
same,MEAN CORPUSCULAR VOLUME,"15 mg/kg, dose level High",67.7 fL
same,MONOCYTE,"15 mg/kg, dose level High",2.1%
same,NEUTROPHIL,"15 mg/kg, dose level High",16.6%
same,PLATELET COUNT,"15 mg/kg, dose level High",1219 x10E3/uL
same,ALANINE AMINOTRANSFERASE,"15 mg/kg, dose level High",48 u/L
same,ALBUMIN,"15 mg/kg, dose level High",3.87 G/DL
same,ALKALINE PHOSPHATASE,"15 mg/kg, dose level High",483.33 u/L
same,ASPARTATE AMINOTRANSFERASE,"15 mg/kg, dose level High",106 u/L
same,BLOOD UREA NITROGEN,"15 mg/kg, dose level High",13.67 mg/dL
same,CARBON DIOXIDE,"15 mg/kg, dose level High",36.33 mmol/L
same,CHLORIDE,"15 mg/kg, dose level High",105 MEQ/L
same,CHOLESTEROL,"15 mg/kg, dose level High",67.33 mg/dL
same,CREATINE PHOSPHOKINASE,"15 mg/kg, dose level High",728.67 u/L
same,CREATININE,"15 mg/kg, dose level High",0.5 mg/dL
same,GLUCOSE,"15 mg/kg, dose level High",182.33 mg/dL
same,LACTATE DEHYDROGENASE,"15 mg/kg, dose level High",183.67 u/L
same,LIPASE,"15 mg/kg, dose level High",13.67 u/L
same,PHOSPHORUS,"15 mg/kg, dose level High",12.43 mg/dL
same,POTASSIUM,"15 mg/kg, dose level High",5.77 MEQ/L
same,SODIUM,"15 mg/kg, dose level High",145 MEQ/L
same,TOTAL BILIRUBIN,"15 mg/kg, dose level High",0.33 mg/dL
same,TOTAL PROTEIN,"15 mg/kg, dose level High",6.17 G/DL
same,URIC ACID,"15 mg/kg, dose level High",1.47 mg/dL
